Reference: PubChem BioAssay (NCI)
Where “and” joins values, the source holds several entries; their conditions need not be identical. Equal values may be shown once.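 Cells were grown in 96-well plates and exposed to each compound for 48 hours at five concentrations; endpoints were interpolated linearly between bracketing concentrations, or set to the highest concentration if not reached. GI50 = concentration required for 50% inhibition of growth. TGI marks complete inhibition of growth.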

Key:
Assay in all cases: growth of human tumour cells (NCI), 48 h
U251 CNS = test system: U251 CNS
SW-620 colon = test system: SW-620 colon
SNB-19 CNS = test system: SNB-19 CNS
MDA-MB-231 breast = test system: MDA-MB-231 breast
KM12 colon = test system: KM12 colon
PC-3 prostate = test system: PC-3 prostate
TK-10 renal = test system: TK-10 renal
SK-MEL-28 melanoma = test system: SK-MEL-28 melanoma
MDA-MB-435 = test system: MDA-MB-435
CCRF-CEM leukemia = test system: CCRF-CEM leukemia

Row | SMILES | TGI (U251 CNS) | TGI (SW-620 colon) [µM] | TGI (SNB-19 CNS) | TGI (MDA-MB-231 breast) [µM] | TGI (KM12 colon) [µM] | TGI (PC-3 prostate) [µM] | TGI (TK-10 renal) [µM] | TGI (SK-MEL-28 melanoma) | TGI (MDA-MB-435) [µM] | GI50 (SNB-19 CNS) [µM] | GI50 (MDA-MB-231 breast) [µM] | GI50 (CCRF-CEM leukemia) | TGI (CCRF-CEM leukemia) | GI50 (TK-10 renal) [µM] | GI50 (SK-MEL-28 melanoma) [µM]
1 | COc1ccc(-c2ncn(C[Si](C)(C)C)c2-c2ccc(OC)cc2)cc1 | 20.7 µM | 17 | 26.2 µM | 27.6 | 19.9 | 16.9 | 20 | 14.8 µM | 13 | – | – | – | – | – | –
2 | COC(=O)CCNc1c2ccccc2nc2cccc([N+](=O)[O-])c12 | 0.127 µM and 0.0318 µM | – | 0.217 µM and 0.0495 µM | 1.44 | 0.00451 | 0.126 | 0.0312 | 0.0112 µM and 0.0918 µM | 0.00104 | 0.00416 | 0.394 | 0.00682 µM and 0.0157 µM | 0.18 µM and 0.0689 µM | 0.00304 | 0.0029
3 | COC1=CC(=O)C=C(OC)C1=O | 64.5 µM | 13.5 | 27 µM | – | 39.3 | – | – | 46.5 µM | – | – | – | – | 4.88 µM | – | –
4 | COC(=O)C(Cc1ccc(N(C)C)cc1)(NC(=O)c1ccccc1)P(=O)(OC)OC (stereo not drawn) | > 100 µM | > 100 | > 100 µM | – | > 100 | – | > 100 | > 100 µM | – | – | – | – | > 100 µM | – | –
5 | CN(O)C(=O)CCCC(=O)NCC(C)(C)CNC(=O)CCCC(=O)N(C)O | > 100 µM | > 100 | > 100 µM | > 100 | > 100 | > 100 | > 100 | – | > 100 | – | – | – | > 100 µM | – | –
6 | CC(=O)O[C@H]1C(=O)[C@@]2(C)[C@H]([C@H](OC(=O)c3ccccc3)[C@]3(O)C[C@H](OC(=O)[C@H](O)[C@@H](NC(=O)c4ccccc4)c4cccc(N(C)C)c4)C(C)=C1C3(C)C)[C@]1(OC(C)=O)CO[C@@H]1C[C@@H]2O | > 27 µM | > 75 | > 41.9 µM | 36.1 | > 24.7 | 12.4 | > 60 | > 75 µM | 0.0388 | – | – | – | – | – | –
7 | O=C(OC1CN2CCC1CC2)N(c1ccccc1)c1ccccc1 (stereo not drawn) | > 100 µM | – | > 100 µM | > 100 | – | > 100 | > 100 | > 100 µM | > 100 | – | – | – | > 100 µM | – | –
8 | Cc1cc2c(c(S(=O)(=O)c3ccccc3[N+](=O)[O-])c1)NCCC2 | > 100 µM | > 100 | > 100 µM | > 100 | > 100 | > 100 | > 100 | > 100 µM | > 100 | – | – | – | – | – | –
9 | CO/N=C(\C([O-])=N\[n+]1cnn(CC(=O)OC(C)(C)C)c1)c1csc(NC(c2ccccc2)(c2ccccc2)c2ccccc2)n1 | > 10 µM | > 10 | > 10 µM | – | > 10 | > 10 | > 10 | > 10 µM | – | – | – | – | > 10 µM | – | –
10 | O=c1[nH]nc(Nc2ccccc2)c2nnn(C3CCCCC3)c12 | > 100 µM | – | > 100 µM | > 100 | > 100 | > 100 | > 100 | > 100 µM | > 100 | – | – | – | > 100 µM | – | –
11 | CNC(=O)SCC(NC(=O)CCC(N)C(=O)O)C(=O)NCC(=O)O (stereo not drawn) | > 100 µM | > 100 | > 100 µM | – | > 100 | – | – | > 100 µM | – | – | – | – | > 100 µM | – | –
12 | CCC(CC)(CO)CNc1cc(Cl)nc(N)n1 | > 100 µM | > 100 | – | > 100 | > 100 | > 100 | > 100 | > 100 µM | > 100 | – | – | – | > 100 µM | – | –
